Assay results from publication PMC5650142, “GPR40 partial agonists and AgoPAMs: Differentiating effects on glucose and hormonal secretions in the rodent” (PLoS ONE, 2017).
Values joined by “and” are separate entries in the source; they are usually repeats but may differ in a detail not shown here. Identical values can stand only once. Like-named read-outs stand apart in the source and are kept apart here.

How the values were obtained:
rat GPR40 = molecular target: T1, rat GPR40 (Rattus norvegicus, UniProt Q8K3T4); assay: Rat GPR40 IP1 accumulation assay; format: cell-based
T1 construct: expressed in transfected cells; host or cells: CHO-K1 (methods)
T1 sequence (Q8K3T4 whole entry): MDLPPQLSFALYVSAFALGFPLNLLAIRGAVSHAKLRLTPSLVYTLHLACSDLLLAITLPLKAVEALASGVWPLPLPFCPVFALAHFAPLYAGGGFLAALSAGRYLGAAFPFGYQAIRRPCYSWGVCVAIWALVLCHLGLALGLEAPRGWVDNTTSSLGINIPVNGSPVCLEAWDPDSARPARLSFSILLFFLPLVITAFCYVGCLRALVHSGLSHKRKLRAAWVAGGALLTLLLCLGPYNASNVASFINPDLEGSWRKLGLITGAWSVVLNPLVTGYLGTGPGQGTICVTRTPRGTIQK
Experimental: (§1) Stable cell lines expressing human GPR40 (hGPR40/HEK293), mouse GPR40 (mGPR40/CHO-K1), and rat GPR40 (rGPR40/CHO-K1) were cultured in DMEM media supplemented with 10% FBS, glutamine, non-essential amino acids, and penicillin/streptomycin. hGPR40/HEK293 & mGPR40/CHO-K1 cell media was supplemented with […] G418 (Life Technologies), while rGPR40/CHO-K1 cells were grown in […] blasticidin plus […] hygromycin (Life Technologies). Cell stocks were maintained and grown in a sub-confluent state using standard cell culture procedures. The day before the experiment, the cells were harvested with non-enzymatic cell dissociation buffer and re-suspended in DMEM supplemented with 10% FBS, glutamine, non-essential amino acids, penicillin/streptomycin at 0.15, 0.2 and 0.3 million cells per ml for human, mouse, and rat GPR40, respectively. […] The seeded plates were incubated overnight at 37 C.
(§2) On the day of the experiment, the growth media was removed from the assay by gently patting the assay plates on an absorbent sheet and 10 μl of IP1 stimulation buffer (Cis Bio IP-one Tb HTRF kit) supplemented with 50 mM LiCl is added to each well. Test compounds dissolved in DMSO were serially diluted in ½ log increments starting from 2 mM or 0.2 mM and 50 nl of the compound dilution was acoustically added to each well (final starting concentration 10 μM or 1 μM). Plates were then incubated for 60 minutes at room temperature and 10 μl of detection buffer (prepared as described in the Tb kit) is added to each well. The plates are then incubated one additional hour at room temperature. […] For each assay, a standard curve plate in which IP1 is titrated is also included. […] The percent activity at each concentration of test compound is determined using 0% activation (basal activity) determined in those wells that contain DMSO alone, while 100% activity is determined in wells that contained a concentration of a partial allosteric agonist know to activate GPR40. The % activity is then plotted versus the concentration of test compound and the dose response curve fitted to a standard 4-parameter non-linear regression model using a custom in-house developed software package (Merck & Co., Inc., MRL, Kenilworth, NJ, USA). Maximal % activity and EC50 are then determined for each test compound.

mouse GPR40 = molecular target: T2, mouse GPR40 (Mus musculus, UniProt Q76JU9); assay: Mouse GPR40 IP1 accumulation assay; format: cell-based
T2 construct: expressed in transfected cells; host or cells: CHO-K1 (methods)
T2 sequence (Q76JU9 whole entry): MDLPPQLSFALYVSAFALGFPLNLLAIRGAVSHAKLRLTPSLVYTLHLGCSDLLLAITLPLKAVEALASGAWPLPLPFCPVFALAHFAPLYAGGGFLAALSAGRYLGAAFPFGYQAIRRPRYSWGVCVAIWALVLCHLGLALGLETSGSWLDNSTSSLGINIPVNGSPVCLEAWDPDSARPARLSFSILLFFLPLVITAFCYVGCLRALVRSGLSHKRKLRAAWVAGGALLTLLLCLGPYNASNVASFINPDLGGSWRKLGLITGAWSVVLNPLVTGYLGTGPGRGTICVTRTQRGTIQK
Experimental: as §1, §2

human GPR40 [1] = molecular target: T3, human GPR40 (Homo sapiens, UniProt O14842); assay: Human GPR40 IP1 accumulation assay; format: cell-based; parameters: expressed in transfected cells
T3 sequence (O14842 whole entry): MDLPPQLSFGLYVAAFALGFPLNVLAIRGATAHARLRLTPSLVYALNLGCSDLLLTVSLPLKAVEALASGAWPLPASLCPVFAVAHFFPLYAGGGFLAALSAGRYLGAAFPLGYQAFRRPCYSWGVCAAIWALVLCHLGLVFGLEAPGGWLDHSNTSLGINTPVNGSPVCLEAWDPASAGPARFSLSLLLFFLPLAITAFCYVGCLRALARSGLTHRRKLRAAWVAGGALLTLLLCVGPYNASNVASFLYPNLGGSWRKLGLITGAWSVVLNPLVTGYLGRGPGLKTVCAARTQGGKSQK
Experimental: as §1, §2

human GPR40 [2] = molecular target: T3, human GPR40; assay: GPR40 binding assay, partial agonist tracer [3H]L358; parameters: expressed in transfected cells; host or cells: CHO / CHO-K1 cells, membrane preparation; settings: radioligand L-001533358;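 as to %Bound: 100% is tracer binding with DMSO alone and 0% is full displacement by a standard compound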
Experimental: Two small molecule tracers, the partial agonist [3H][…] and the AgoPAM [3H]25, are used to measure compound affinity at each site as described previously. Because of the allosteric coupling of the two sites and the nature of the assay, addition of a compound will either displace (binds to same site) or augment (binds to allosterically coupled site) radiotracer. Membranes expressing GPR40 were prepared from CHO cells stably expressing human GPR40. […] Sigma P8830) and were homogenized in 50 ml aliquots with a motor-driven glass Dounce homogenizer, 15 strokes at 1900 rpm on wet ice, repeating once. Homogenates were centrifuged at 2200 rpm for 10 min at 4°C. Supernatants were carefully removed and pooled. Homogenization and centrifugation were repeated until the debris pellet was translucent to maximize membrane recovery. Supernatants were then centrifuged at […] rpm for 20 min. at 4°C. […] Protein concentration was determined by Pierce BCA kit. […] The beads and membrane mixture is then vigorously mixed for 30 minutes at room temperature prior to addition to the assay. […] Next, 15 μl of the radioligand and 35 μl of the beads/membranes solution is added to each well. The assay plates are then sealed and incubated for 30 minutes at room temperature on an orbital shaker. The plates are allowed to settle for 16 hours and then counted on a TopCount scintillation counter (PE). […] Maximal % bound and IC50 are then determined for each test compound. 5 μg/well membrane together with 200 μg/well of PVT WGA SPA beads (GE #RPNG-0001) were suspended in a white 96 well plate with a final concentration of 50 μl/well in assay buffer (50 mM Tris, 10 mM MgCl2, and 2 mM EDTA). […] The plate is briefly mixed and incubated for 3-18 h at room temperature, before it is read on a MicroBeta plate counter (Perkin Elmer, MS, USA).

[3] = maximal % activity vs in-house partial agonist control

- Rat GPR40 Receptor Activation (%) (rat GPR40; dose 1.50E-11 M): 7%
- Rat GPR40 Receptor Activation (%) (rat GPR40; dose 1.55E-08 M): 588%
- Rat GPR40 Receptor Activation (%) (rat GPR40; dose 2.43E-10 M): 161%
- Rat GPR40 Receptor Activation (%) (rat GPR40; dose 2.49E-07 M): 616%
- Rat GPR40 Receptor Activation (%) (rat GPR40; dose 3.89E-09 M): 549%
- Rat GPR40 Receptor Activation (%) (rat GPR40; dose 4.00E-12 M): 0.25%
- Rat GPR40 Receptor Activation (%) (rat GPR40; dose 6.10E-11 M): 52%
- Rat GPR40 Receptor Activation (%) (rat GPR40; dose 6.22E-08 M): 567%
- Rat GPR40 Receptor Activation (%) (rat GPR40; dose 9.72E-10 M): 357%
- Rat GPR40 Receptor Activation (%) (rat GPR40; dose 9.95E-07 M): 567%
- EC50 (rat GPR40; individual determinations, read-out: EC50 (nM), Rat GPR40, Functional Assay): 0.45 nM and 0.46 nM and 0.58 nM and 0.61 nM and 0.72 nM and 0.95 nM and 1.15 nM and 0.31 nM and 0.33 nM and 0.36 nM
- Efficacy (% Activation), Rat (rat GPR40; [3]): (531%)
- EC50 (rat GPR40; mean ± SD, n = 2–20, IP accumulation, read-out: Potency [EC50, nM] ± SD, Rat): 0.59 ± 0.28 nM
- Mouse GPR40 Receptor Activation (%) (mouse GPR40; dose 1.50E-11 M): 13%
- Mouse GPR40 Receptor Activation (%) (mouse GPR40; dose 1.55E-08 M): 531%
- Mouse GPR40 Receptor Activation (%) (mouse GPR40; dose 2.43E-10 M): 207%
- Mouse GPR40 Receptor Activation (%) (mouse GPR40; dose 2.49E-07 M): 540%
- Mouse GPR40 Receptor Activation (%) (mouse GPR40; dose 3.89E-09 M): 508%
- Mouse GPR40 Receptor Activation (%) (mouse GPR40; dose 4.00E-12 M): -3.79%
- Mouse GPR40 Receptor Activation (%) (mouse GPR40; dose 6.10E-11 M): 72%
- Mouse GPR40 Receptor Activation (%) (mouse GPR40; dose 6.22E-08 M): 489%
- Mouse GPR40 Receptor Activation (%) (mouse GPR40; dose 9.72E-10 M): 327%
- EC50 (mouse GPR40; individual determinations, read-out: EC50 (nM), Mouse GPR40, Functional Assay): 0.44 nM and 0.48 nM and 0.55 nM and 0.56 nM and 0.66 nM and 0.74 nM and 0.33 nM and 0.41 nM and 0.43 nM
- Efficacy (% Activation), Mouse (mouse GPR40; [3]): (532%)
- EC50 (mouse GPR40; mean ± SD, n = 2–20, IP accumulation, read-out: Potency [EC50, nM] ± SD, Mouse): 0.51 ± 0.12 nM
- Human GPR40 Receptor Activation (%) (human GPR40 [1]; dose 1.50E-11 M): 35%
- Human GPR40 Receptor Activation (%) (human GPR40 [1]; dose 1.55E-08 M): 357%
- Human GPR40 Receptor Activation (%) (human GPR40 [1]; dose 2.43E-10 M): 231%
- Human GPR40 Receptor Activation (%) (human GPR40 [1]; dose 2.49E-07 M): 381%
- Human GPR40 Receptor Activation (%) (human GPR40 [1]; dose 3.89E-09 M): 357%
- Human GPR40 Receptor Activation (%) (human GPR40 [1]; dose 4.00E-12 M): 5%
- Human GPR40 Receptor Activation (%) (human GPR40 [1]; dose 6.10E-11 M): 154%
- Human GPR40 Receptor Activation (%) (human GPR40 [1]; dose 6.22E-08 M): 356%
- Human GPR40 Receptor Activation (%) (human GPR40 [1]; dose 9.72E-10 M): 323%
- Human GPR40 Receptor Activation (%) (human GPR40 [1]; dose 9.95E-07 M): 404%
- EC50 (human GPR40 [1]; individual determinations, read-out: EC50 (nM), HUMAN GPR40, Functional Assay): 0.13 nM and 0.14 nM and 0.18 nM and 0.19 nM and 0.22 nM and 0.08 nM and 0.09 nM and 0.12 nM
- Efficacy (% Activation), Human (human GPR40 [1]; [3]): (359%)
- EC50 (human GPR40 [1]; mean ± SD, n = 2–20, IP accumulation, read-out: Potency [EC50, nM] ± SD, Human): 0.15 ± 0.05 nM
- % Bound Normalized to 100 (human GPR40 [2]; dose 0.318285 nM): 100.72%
- %Bound (human GPR40 [2]; dose 0.318285 nM): 106.70%
- % Bound Normalized to 100 (human GPR40 [2]; dose 1.00578 nM): 118.24%
- %Bound (human GPR40 [2]; dose 1.00578 nM): 124.21%
- % Bound Normalized to 100 (human GPR40 [2]; dose 3.17827 nM): 131.70%
- %Bound (human GPR40 [2]; dose 3.17827 nM): 137.67%
- % Bound Normalized to 100 (human GPR40 [2]; dose 10.0433 nM): 152.63%
- %Bound (human GPR40 [2]; dose 10.0433 nM): 158.61%
- % Bound Normalized to 100 (human GPR40 [2]; dose 31.7369 nM): 164.17%
- %Bound (human GPR40 [2]; dose 31.7369 nM): 170.14%
- % Bound Normalized to 100 (human GPR40 [2]; dose 100.289 nM): 171.43%
- %Bound (human GPR40 [2]; dose 100.289 nM): 177.41%
- % Bound Normalized to 100 (human GPR40 [2]; dose 316.912 nM): 183.61%
- %Bound (human GPR40 [2]; dose 316.912 nM): 189.59%
- % Bound Normalized to 100 (human GPR40 [2]; dose 1001.44 nM): 174.85%
- %Bound (human GPR40 [2]; dose 1001.44 nM): 180.83%
- % Bound Normalized to 100 (human GPR40 [2]; dose 3164.56 nM): 169.51%
- %Bound (human GPR40 [2]; dose 3164.56 nM): 175.49%
- % Bound Normalized to 100 (human GPR40 [2]; dose 10000 nM): 192.80%
- %Bound (human GPR40 [2]; dose 10000 nM): 198.77%
SMILES: COc1ccc(F)c(-c2ccc([C@@H]3CCc4ccc([C@H](C5CC5)[C@H](C)C(=O)O)cc4O3)cc2)c1 [AP1]
- %Act, Rat GPR40, Functional Assay (rat GPR40; individual determinations): 391% and 456% and 671% and 592% and 636% and 716% and 674% and 356% and 385% and 437%
- %Act, Mouse GPR40, Functional Assay (mouse GPR40; individual determinations): 325% and 647% and 612% and 390% and 593% and 587% and 801% and 441% and 392% and 533%
- %Act, HUMAN GPR40, Functional Assay (human GPR40 [1]; individual determinations): 254% and 368% and 338% and 409% and 464% and 275% and 405% and 364% and 355%
